Data taken from patent US10858360B2, “Tricyclic gyrase inhibitors” (priority 2011, dated 2020).
Values after ≈ are worked out from the molar mass of the structure shown. Read-outs that look alike come from different tables or passages of the source.

Tests used:
[1] = system: E. coli ATCC 25922; assay: MIC, E. coli ATCC 25922; format: cell-based; settings: for MIC: Escherichia coli, ATCC25922, E. coli
[2] = system: S. aureus ATCC 13709; assay: MIC, S. aureus ATCC 13709 (Alamar Blue broth microdilution); format: cell-based; settings: for MIC: Staphylococcus aureus, ATCC13709, S. aureus
[3] = E. coli, Alamar Blue read after overnight incubation at 35° C.
[4] = S. aureus, Alamar Blue read after overnight incubation at 35° C.
[5] = Alamar Blue read after overnight incubation at 35° C.

## CNc1cc(F)cc2c1[nH]c1nc(Oc3cnc(CCO)nc3)nc(N3CC4CC3C[C@@H]4N)c12 (some centres unmarked) [4.428]
[1]; [3]
  MIC Ec: 2 µg/mL (≈ 4.31 µM)
[2]; [4]
  MIC Sa: ≤0.5 µg/mL

## CNc1cc(F)cc2c1[nH]c1nc(Oc3cnc(C4CC4)nc3)nc(N3CC4C[C@@H](N)C4C3)c12 (some centres unmarked) [4.254]
[1]; [5]
  MIC: ≤ 0.5 µg/mL
[2]; [5]
  MIC: ≤ 0.5 µg/mL

## CNc1cc(F)cc2c1[nH]c1nc(Oc3cnc(C)nc3)nc(N3CC(NCCO)C4(CC4)C3)c12 (centres unmarked) [4.089]
[1]; [3]
  MIC Ec: ≤0.5 µg/mL
[2]; [4]
  MIC Sa: ≤0.5 µg/mL

## CNc1cccc2c1[nH]c1nc(Oc3cncc(F)c3)nc(N3CC(N)C4(CC4)C3)c12 (centres unmarked) [3.50]
[1]; [5]
  MIC: 2 µg/mL (≈ 4.77 µM)
[2]; [5]
  MIC: ≤ 0.5 µg/mL

## CNc1cc(F)cc2c1[nH]c1nc(Oc3cnc(C#N)c(C)c3)nc(N3CC4CC(N)C4C3)c12 (centres unmarked) [4.323]
[1]; [3]
  MIC Ec: 1 µg/mL (≈ 2.18 µM)
[2]; [4]
  MIC Sa: ≤0.5 µg/mL

## NC1C2CN(c3nc(Sc4cnc5cccnc5c4)nc4[nH]c5c(NC6CC6)cc(F)cc5c34)CC12 (centres unmarked) [1.1]
[1]; [5]
  MIC: 64 µg/mL (≈ 128 µM)
[2]; [5]
  MIC: 4 µg/mL (≈ 8.02 µM)

## CNc1cc(Cl)cc2c1[nH]c1nc(Oc3cnc(N)nc3)nc(N3CC4C(N)C4C3)c12 (centres unmarked) [6.17]
[1]
  MIC Ec: ≤0.5 µg/mL
[2]
  MIC Sa: ≤0.5 µg/mL

## CNc1cc(C(F)(F)F)cc2c1[nH]c1nc(Oc3cnc(C)nc3)nc(N3CC4C(N)C4C3)c12 (centres unmarked) [6.10]
[1]
  MIC Ec: ≤0.5 µg/mL
[2]
  MIC Sa: ≤0.5 µg/mL

## CNc1cccc2c1[nH]c1nc(Sc3cnc4ccc[n+]([O-])c4c3)nc(N3CC4C(C3)C4NC(=O)[C@H](C)N)c12 (some centres unmarked) [1.52]
[1]; [5]
  MIC: 16 µg/mL (≈ 29.5 µM)
[2]; [5]
  MIC: 1 µg/mL (≈ 1.85 µM)

## CNc1cccc2c1[nH]c1nc(Sc3cnc4cccnc4c3)nc(N3CC4C(N)C4C3)c12 (centres unmarked) [1.12]
[1]; [5]
  MIC: 1 µg/mL (≈ 2.2 µM)
[2]; [5]
  MIC: ≤ 0.5 µg/mL

## CCNC(=O)c1cncc(Oc2nc(NCC)c3c(n2)[nH]c2c(NC)cc(F)cc23)c1 [4.384]
[1]; [3]
  MIC Ec: >16 µg/mL
[2]; [4]
  MIC Sa: 1 µg/mL (≈ 2.36 µM)

## CNc1cccc2c1[nH]c1nc(Oc3cncnc3)nc(N3CC[C@@H](N)C3)c12 [3.4]
[1]; [5]
  MIC: ≤ 0.5 µg/mL
[2]; [5]
  MIC: 0.5 µg/mL (≈ 1.33 µM)

## CNc1cc(F)cc2c1[nH]c1nc(Oc3cnc(SC)nc3)nc(N3CC4CCC(N)C4C3)c12 (centres unmarked) [4.200]
[1]; [3]
  MIC Ec: ≤0.5 µg/mL
[2]; [4]
  MIC Sa: ≤0.5 µg/mL

## CNc1cc(F)cc2c1[nH]c1nc(Oc3cnc(N4CC(O)C4)nc3)nc(N3CC4C(N)C4C3)c12 (centres unmarked) [4.298]
[1]; [5]
  MIC: 2 µg/mL (≈ 4.19 µM)
[2]; [5]
  MIC: ≤ 0.5 µg/mL

## CNc1cc(F)cc2c1[nH]c1nc(Sc3cnc4cccnc4c3)nc(N3CC(N)C4(CC4)C3)c12 (centres unmarked) [1.62]
[1]; [5]
  MIC: ≤ 0.5 µg/mL
[2]; [5]
  MIC: ≤ 0.5 µg/mL

## CNc1cc(F)cc2c1[nH]c1nc(Oc3cncc(Cl)c3)nc(N3CC4CC3CC4N)c12 (centres unmarked) [4.279]
[1]; [3]
  MIC Ec: ≤0.5 µg/mL
[2]; [4]
  MIC Sa: ≤0.5 µg/mL

## CNc1cc(F)cc2c1[nH]c1nc(Oc3cncnc3)ncc12 [4.031]
[1]; [5]
  MIC: > 16 µg/mL
[2]; [5]
  MIC: 2 µg/mL (≈ 6.45 µM)

## Cc1ncc(Oc2nc(N3C[C@H](N)C4(CC4)C3)c3c(n2)[nH]c2c(N(C)C(=O)[C@H](C)N)cc(F)cc23)cn1 [4.423]
[1]; [5]
  MIC: > 16 µg/mL
[2]; [5]
  MIC: > 16 µg/mL

## CNc1cc(F)cc2c1[nH]c1nc(Oc3cnc4ccoc4c3)nc(N3CC4C(N)C4C3)c12 (centres unmarked) [4.291]
[1]; [5]
  MIC: ≤ 0.5 µg/mL
[2]; [5]
  MIC: ≤ 0.5 µg/mL

## CNc1cc(F)cc2c1[nH]c1nc(Oc3cnc(C)nc3)nc(N3CC(C4(N)CC4)C3)c12 [4.080]
[1]; [3]
  MIC Ec: 1 µg/mL (≈ 2.3 µM)
[2]; [4]
  MIC Sa: ≤0.5 µg/mL

## CNc1cc(F)cc2c1[nH]c1nc(Oc3cnc(C)nc3)nc(N3CC4(CCC4N)C3)c12 (centres unmarked) [4.100]
[1]; [3]
  MIC Ec: ≤0.5 µg/mL
[2]; [4]
  MIC Sa: ≤0.5 µg/mL

## CNc1cccc2c1[nH]c1nc(Oc3cncc(C#N)c3)nc(N3CC4C(N)C4C3)c12 (centres unmarked) [3.27]
[1]; [5]
  MIC: 4 µg/mL (≈ 9.7 µM)
[2]; [5]
  MIC: 1 µg/mL (≈ 2.42 µM)

## CNc1cc(F)cc2c1[nH]c1nc(Oc3cnc(C)nc3)nc(N(C)C3CNC3)c12 [4.134]
[1]; [3]
  MIC Ec: >16 µg/mL
[2]; [4]
  MIC Sa: >16 µg/mL

## CNc1cc(F)cc2c1[nH]c1nc(Oc3cnc4c(c3)C(=O)N(C)C4C)nc(N3CC4CC(N)C4C3)c12 (centres unmarked) [4.397]
[1]; [3]
  MIC Ec: ≤0.5 µg/mL
[2]; [4]
  MIC Sa: ≤0.5 µg/mL

## CNc1cc(F)cc2c1[nH]c1nc(Oc3cnc(SC)nc3)nc(N3C[C@H]4C[C@@H]3C[C@H]4N)c12 [4.204]
[1]; [3]
  MIC Ec: ≤0.5 µg/mL
[2]; [4]
  MIC Sa: ≤0.5 µg/mL

## CNc1cc(F)cc2c1[nH]c1nc(Oc3cnc(C4CCC4)nc3)nc(N3C[C@H](N)C4(CC4)C3)c12 [4.287]
[1]; [5]
  MIC: ≤ 0.5 µg/mL
[2]; [5]
  MIC: ≤ 0.5 µg/mL

## CNc1cc(F)cc2c1[nH]c1nc(Oc3cnc(C)nc3)nc(N3CC[C@H](N)[C@@H](F)C3)c12 [4.144]
[1]; [5]
  MIC: 1 µg/mL (≈ 2.27 µM)
[2]; [5]
  MIC: ≤ 0.5 µg/mL

## CNc1cccc2c1[nH]c1nc(Sc3cnc4ccc[n+]([O-])c4c3)nc(N3CC(O)C3)c12 [1.17]
[1]; [5]
  MIC: > 64 µg/mL
[2]; [5]
  MIC: ≤ 0.5 µg/mL

## CNc1cccc2c1[nH]c1nc(Oc3cncc(F)c3)nc(N3CC[C@@H](N)C3)c12 [3.6]
[1]; [5]
  MIC: 1 µg/mL (≈ 2.54 µM)
[2]; [5]
  MIC: 0.5 µg/mL (≈ 1.27 µM)

## CNc1cccc2c1[nH]c1nc(Sc3cc4ncccc4[n+]([O-])c3)nc(N3C[C@@H]4[C@@H](N)[C@@H]4C3)c12 [1.31]
[1]; [5]
  MIC: ≤ 0.5 µg/mL
[2]; [5]
  MIC: ≤ 0.5 µg/mL

## CNc1cc(F)cc2c1[nH]c1nc(Oc3cncc(Br)c3)nc(N3CC4CC3CC4N)c12 (centres unmarked) [4.284]
[1]; [3]
  MIC Ec: ≤0.5 µg/mL
[2]; [4]
  MIC Sa: ≤0.5 µg/mL
